Source: US20230119894A1, “THERAPEUTIC OR PROPHYLACTIC METHOD FOR DIABETES USING COMBINATION MEDICINE” (Japan Tobacco Inc., priority 2019, published 2023)
Marks after values point to notes of the source that are not given here.

Columns and labels:
[1] = system: Salmonella typhimurium TA98; assay: Ames test (reverse mutation test), TA98; details: for Number of revertant colonies: TA98; for Number of revertant colonies TA98: S9 Mix +, mean number of each plate
Method: (§1) Metabolites 1, 3, and 5 and Metabolites C to H were each tested herein. The purpose of this test is to evaluate the potential of each metabolite to induce reverse mutations in the standard strains of Salmonella typhimurium (TA98, TA1537, TA100, and TA1535) and Escherichia coli (WP2uvrA), in either the presence or absence of a rat liver metabolic activation system (S9 mix).
(§2) The solvent used herein was dimethyl sulfoxide (DMSO, 100 μL/plate).
(§3) The test was performed by the pre-incubation method with or without S9 mix. When the test was performed without S9 mix, sodium phosphate buffer solution (pH 7.4) was added.
(§4) 0.5 mL of S9 mix or 0.5 mL of 0.1 mol/L sodium phosphate buffer solution (pH 7.4), and 0.1 mL of the bacterial culture solution were added to a test tube containing 0.1 mL of the negative control formulation (DMSO alone), the metabolite, or the positive control formulation. The mixtures were pre-incubated at 37° C. for 20 minutes while shaking. After the pre-incubation period, 2 mL of top agar were added and the mixtures were vortex-mixed and seeded onto plates. Two plates per treatment were used. Each plate was incubated at 37±1° C. for 48 hours or more and the revertant colonies were counted. The mean number of revertant colonies for each treatment plate was then calculated. […] Evaluation was based on mean values with no statistical comparisons being used.

[2] = system: Salmonella typhimurium TA1537; assay: Ames test (reverse mutation test), TA1537; details: for Number of revertant colonies: TA1537; for Number of revertant colonies TA1537: S9 Mix +, mean number of each plate
Method: as §1, §2, §3, §4

[3] = system: Salmonella typhimurium TA100; assay: Ames test (reverse mutation test), TA100; details: for Number of revertant colonies: TA100; for Number of revertant colonies TA100: S9 Mix +, mean number of each plate
Method: as §1, §2, §3, §4

[4] = system: Salmonella typhimurium TA1535; assay: Ames test (reverse mutation test), TA1535
Method: as §1, §2, §3, §4

Escherichia coli WP2uvrA = assay: Ames test (reverse mutation test), WP2uvrA; format: cell-based; details: for Number of revertant colonies: WP2uvrA; for Number of revertant colonies WP2uvrA: S9 Mix +, mean number of each plate

## Nc1cc(-c2cc(F)cc(OC(F)(F)F)c2)n(-c2cncc(F)c2)n1 [Metabolite 3]
[1]; S9 mix +, 6.9 μg/plate
  Number of revertant colonies: 35
[1]; S9 mix +, 21 μg/plate
  Number of revertant colonies: 37
[1]; S9 mix +, 62 μg/plate
  Number of revertant colonies: 35
[1]; S9 mix +, 185 μg/plate
  Number of revertant colonies: 36
[1]; S9 mix +, 556 μg/plate
  Number of revertant colonies: 22*
[1]; S9 mix +, 1667 μg/plate
  Number of revertant colonies: 20*†
[1]; S9 mix +, 5000 μg/plate
  Number of revertant colonies: 16*†
[1]; S9 mix −, 6.9 μg/plate
  Number of revertant colonies: 30
[1]; S9 mix −, 21 μg/plate
  Number of revertant colonies: 30
[1]; S9 mix −, 62 μg/plate
  Number of revertant colonies: 28
[1]; S9 mix −, 185 μg/plate
  Number of revertant colonies: 28
[1]; S9 mix −, 556 μg/plate
  Number of revertant colonies: 12*
[1]; S9 mix −, 1667 μg/plate
  Number of revertant colonies: 9*†
[1]; S9 mix −, 5000 μg/plate
  Number of revertant colonies: 7*†
[2]; S9 mix +, 6.9 μg/plate
  Number of revertant colonies: 12
[2]; S9 mix +, 21 μg/plate
  Number of revertant colonies: 13
[2]; S9 mix +, 62 μg/plate
  Number of revertant colonies: 12
[2]; S9 mix +, 185 μg/plate
  Number of revertant colonies: 12
[2]; S9 mix +, 556 μg/plate
  Number of revertant colonies: 8*
[2]; S9 mix +, 1667 μg/plate
  Number of revertant colonies: 0*†
[2]; S9 mix +, 5000 μg/plate
  Number of revertant colonies: 1*†
[2]; S9 mix −, 6.9 μg/plate
  Number of revertant colonies: 9
[2]; S9 mix −, 21 μg/plate
  Number of revertant colonies: 8
[2]; S9 mix −, 62 μg/plate
  Number of revertant colonies: 8
[2]; S9 mix −, 185 μg/plate
  Number of revertant colonies: 8
[2]; S9 mix −, 556 μg/plate
  Number of revertant colonies: 3*
[2]; S9 mix −, 1667 μg/plate
  Number of revertant colonies: 3*†
[2]; S9 mix −, 5000 μg/plate
  Number of revertant colonies: 2*†
[3]; S9 mix +, 6.9 μg/plate
  Number of revertant colonies: 109
[3]; S9 mix +, 21 μg/plate
  Number of revertant colonies: 119
[3]; S9 mix +, 62 μg/plate
  Number of revertant colonies: 118
[3]; S9 mix +, 185 μg/plate
  Number of revertant colonies: 125
[3]; S9 mix +, 556 μg/plate
  Number of revertant colonies: 115*†
[3]; S9 mix +, 1667 μg/plate
  Number of revertant colonies: 97*†
[3]; S9 mix +, 5000 μg/plate
  Number of revertant colonies: 92*†
[3]; S9 mix −, 6.9 μg/plate
  Number of revertant colonies: 89
[3]; S9 mix −, 21 μg/plate
  Number of revertant colonies: 90
[3]; S9 mix −, 62 μg/plate
  Number of revertant colonies: 87
[3]; S9 mix −, 185 μg/plate
  Number of revertant colonies: 86
[3]; S9 mix −, 556 μg/plate
  Number of revertant colonies: 6*
[3]; S9 mix −, 1667 μg/plate
  Number of revertant colonies: 5*†
[3]; S9 mix −, 5000 μg/plate
  Number of revertant colonies: 5*†
[4]; S9 mix +, 6.9 μg/plate
  Number of revertant colonies: 8
[4]; S9 mix +, 21 μg/plate
  Number of revertant colonies: 9
[4]; S9 mix +, 62 μg/plate
  Number of revertant colonies: 11
[4]; S9 mix +, 185 μg/plate
  Number of revertant colonies: 9
[4]; S9 mix +, 556 μg/plate
  Number of revertant colonies: 4*
[4]; S9 mix +, 1667 μg/plate
  Number of revertant colonies: 3*†
[4]; S9 mix +, 5000 μg/plate
  Number of revertant colonies: 1*†
[4]; S9 mix −, 6.9 μg/plate
  Number of revertant colonies: 9
[4]; S9 mix −, 21 μg/plate
  Number of revertant colonies: 11
[4]; S9 mix −, 62 μg/plate
  Number of revertant colonies: 10
[4]; S9 mix −, 185 μg/plate
  Number of revertant colonies: 8
[4]; S9 mix −, 556 μg/plate
  Number of revertant colonies: 8*
[4]; S9 mix −, 1667 μg/plate
  Number of revertant colonies: 0*†
[4]; S9 mix −, 5000 μg/plate
  Number of revertant colonies: 0*†
Escherichia coli WP2uvrA; S9 mix +, 6.9 μg/plate
  Number of revertant colonies: 19
Escherichia coli WP2uvrA; S9 mix +, 21 μg/plate
  Number of revertant colonies: 19
Escherichia coli WP2uvrA; S9 mix +, 62 μg/plate
  Number of revertant colonies: 19
Escherichia coli WP2uvrA; S9 mix +, 185 μg/plate
  Number of revertant colonies: 19
Escherichia coli WP2uvrA; S9 mix +, 556 μg/plate
  Number of revertant colonies: 17*
Escherichia coli WP2uvrA; S9 mix +, 1667 μg/plate
  Number of revertant colonies: 14*†
Escherichia coli WP2uvrA; S9 mix +, 5000 μg/plate
  Number of revertant colonies: 9*†
Escherichia coli WP2uvrA; S9 mix −, 6.9 μg/plate
  Number of revertant colonies: 21
Escherichia coli WP2uvrA; S9 mix −, 21 μg/plate
  Number of revertant colonies: 16
Escherichia coli WP2uvrA; S9 mix −, 62 μg/plate
  Number of revertant colonies: 23
Escherichia coli WP2uvrA; S9 mix −, 185 μg/plate
  Number of revertant colonies: 20
Escherichia coli WP2uvrA; S9 mix −, 556 μg/plate
  Number of revertant colonies: 16*
Escherichia coli WP2uvrA; S9 mix −, 1667 μg/plate
  Number of revertant colonies: 13*†
Escherichia coli WP2uvrA; S9 mix −, 5000 μg/plate
  Number of revertant colonies: 8*†

## Nc1cc(-c2cc(F)cc(OC(F)(F)F)c2)n(-c2cncc(C(F)(F)F)c2)n1 [Metabolite 5]
[4]; S9 mix +, 185 μg/plate
  Number of revertant colonies: 9
[4]; S9 mix −, 6.9 μg/plate
  Number of revertant colonies: 9
[4]; S9 mix −, 556 μg/plate
  Number of revertant colonies: 6

## CC(C)(OCc1cc(F)cc(-c2cc(N)nn2-c2ccc(F)cc2)c1)C(F)(F)F [Metabolite D, reference compound]
[1]; dose 2.3 μg/plate
  Number of revertant colonies TA98: 39
[1]; dose 6.9 μg/plate
  Number of revertant colonies TA98: 42
[1]; dose 21 μg/plate
  Number of revertant colonies TA98: 52
[1]; dose 62 μg/plate
  Number of revertant colonies TA98: 47
[1]; dose 185 μg/plate
  Number of revertant colonies TA98: 49
[1]; dose 556 μg/plate
  Number of revertant colonies TA98: 51
[1]; dose 1667 μg/plate
  Number of revertant colonies TA98: 57
[1]; dose 5000 μg/plate
  Number of revertant colonies TA98: 88
[2]; dose 2.3 μg/plate
  Number of revertant colonies TA1537: 14
[2]; dose 6.9 μg/plate
  Number of revertant colonies TA1537: 20
[2]; dose 62 μg/plate
  Number of revertant colonies TA1537: 18
[2]; dose 185 μg/plate
  Number of revertant colonies TA1537: 15
[2]; dose 556 μg/plate
  Number of revertant colonies TA1537: 15
[2]; dose 1667 μg/plate
  Number of revertant colonies TA1537: 19
[2]; dose 5000 μg/plate
  Number of revertant colonies TA1537: 24
[3]; dose 2.3 μg/plate
  Number of revertant colonies TA100: 139
[3]; dose 6.9 μg/plate
  Number of revertant colonies TA100: 203
[3]; dose 21 μg/plate
  Number of revertant colonies TA100: 237
[3]; dose 62 μg/plate
  Number of revertant colonies TA100: 185
[3]; dose 185 μg/plate
  Number of revertant colonies TA100: 151
[3]; dose 556 μg/plate
  Number of revertant colonies TA100: 119
[3]; dose 1667 μg/plate
  Number of revertant colonies TA100: 100
Escherichia coli WP2uvrA; dose 2.3 μg/plate
  Number of revertant colonies WP2uvrA: 31
Escherichia coli WP2uvrA; dose 21 μg/plate
  Number of revertant colonies WP2uvrA: 24
Escherichia coli WP2uvrA; dose 185 μg/plate
  Number of revertant colonies WP2uvrA: 23
Escherichia coli WP2uvrA; dose 556 μg/plate
  Number of revertant colonies WP2uvrA: 32
Escherichia coli WP2uvrA; dose 1667 μg/plate
  Number of revertant colonies WP2uvrA: 28
Escherichia coli WP2uvrA; dose 5000 μg/plate
  Number of revertant colonies WP2uvrA: 28
